Laboratory results published in patent publication US4289910A, “1-Hydroxymethyl-prosten-1-ol derivatives” (American Cyanamid Company, priority 1980, dated 1981).

Legend:
Type in all cases: in vivo
Ach = assay: Konzett data, Ach
5-HT = assay: Konzett data, 5-HT
Hist = assay: Konzett data, Hist

Structure (SMILES) | ED50 (Ach) | 5-HT (ED50) (5-HT) | Ach (ED50) (Ach) | Hist (ED50) (Hist)
C=CC(O)(C/C=C/[C@H]1[C@H](O)CC(=O)[C@@H]1C/C=C\CCCC(O)CO)CCCC (relative stereo) [11α,16-Dihydroxy-1-hydroxymethyl-16-vinyl-9-oxo-5-cis-13-trans-prostadien-1-ol] | 11.8 mg/kg | – | – | –
CCCCC(C)(O)C/C=C/[C@H]1[C@H](O)CC(=O)[C@@H]1CCCCCCC(O)CO (relative stereo) [11α,16-Dihydroxy-1-hydroxymethyl-16-methyl-,9-oxo-13-trans-prosten-1-ol] | 75.9 mg/kg | – | – | –
CCCCCC(C)(O)/C=C/C1C(O)CC(=O)C1C/C=C\CCCCO (racemic) [dl-1,11 ,15-trihydroxymethyl-9-oxo-15-methyl-5-cis-13-trans prostadiene] | – | 8.3 mg/kg | 4.3 mg/kg | 0.75 mg/kg
CCCCC(C)(O)C/C=C/[C@H]1[C@H](O)CC(=O)[C@@H]1C/C=C\CCCC(O)CO (relative stereo) [11α,16-Dihydroxy-1-hydroxymethyl-16-methyl-9-oxo-5-cis-13-trans-prostadien-1-ol] | 331 mg/kg | – | – | –
C=CC(O)(C/C=C/[C@H]1[C@H](O)CC(=O)[C@@H]1CCCCCCC(O)CO)CCCC (relative stereo) [3β-(4-Butylhydroxy-4-hydroxy-1,5-hexadienyl)-2α-(7,8-dihydroxyoctyl)-4α-hydroxycyclopentanone] | 20.1 mg/kg | – | – | –
